Results taken from patent US20260062422A1 (Halda Therapeutics OpCo, Inc., priority 2022, published 2026).

How the values were obtained:
[1] = tested on: T-Rex 293 cell line SC3 cells having increased expression of androgen receptor protein due to exposure to doxycycline; assay: Cellular growth inhibition, T-Rex 293 SC3 cells with doxycycline (androgen receptor induced), CellTiter-Glo; format: cell-based; settings: T-Rex 293 SC3 cells with 10 ng/mL doxycycline (increased androgen receptor expression)
Summary of the method: (§1)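 With DMSO (0.5%) vehicle as negative control, compounds treated SC3 cells for 72 h in medium containing charcoal-dextran FBS ± doxycycline. This T-Rex 293 clone expresses transfected wild-type AR on induction. Readout: CellTiter-Glo 2.0; GI50 by nonlinear regression.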

T47D cells = assay: Cellular growth inhibition assay for T47D cells, CellTiter-Glo; format: cell-based, human; settings: 72 hours treatment, CellTiter-Glo 2.0 cell viability
Summary of the method: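 Cells are plated at 3000/well and allowed 24 h before treatment. Test compound in medium containing 0.5% DMSO is then added, with DMSO-only wells as negative control, and plates are incubated 72 h at 37 °C. ATP luminescence (CellTiter-Glo 2.0) is then fitted to four parameters to derive GI50.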

VCaP cells = assay: Cellular growth inhibition assay for VCaP cells, CellTiter-Glo; format: cell-based, human; settings: 72 hours treatment, CellTiter-Glo 2.0
Summary of the method: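 GI50 values come from four-parameter curve fits of luminescence data normalized to a zero baseline. Compound, in medium with 0.5% DMSO, was added one day after plating and left for 72 h before CellTiter-Glo 2.0 addition.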

[2] = tested on: T-Rex 293 cell line SC3 cells lacking increased expression of androgen receptor protein; assay: Cellular growth inhibition, T-Rex 293 SC3 cells without doxycycline, CellTiter-Glo; format: cell-based; settings: T-Rex 293 SC3 cells not exposed to doxycycline, CellTiter-Glo 2.0
Summary of the method: as §1

Row | Structure (SMILES) | GI50 (T47D cells; Homo sapiens, T47D, 72 h) [nM] | GI50 (VCaP cells; Homo sapiens, VCaP, 72 h) [nM] | GI50 (T47D cells) [nM] | GI50 (VCaP cells) [nM] | GI50 ([1]; 72 h) [nM] | GI50 ([2]; 72 h) [nM] | GI50 ([1]; 72 hours) [nM] | GI50 ([2]; 72 hours) [nM]
1 | Cc1sc2c(c1C)C(c1ccc(CCCOC3CCN(c4ncc(C(=O)N[C@H]5C(C)(C)[C@H](Oc6ccc(C#N)c(Cl)c6)C5(C)C)cn4)CC3)cc1)=C[C@H](Cc1ccncn1)c1nnc(C)n1-2 [Compound I-375] | < 500 | < 500 | – | – | < 500 | < 500 | – | –
2 | Cc1sc2c(c1C)C(c1ccc([C@H]3C[C@H](C[C@@H]4CCCN(c5ncc(C(=O)N[C@H]6C(C)(C)[C@H](Oc7ccc(C#N)c(Cl)c7)C6(C)C)cn5)C4)C3)cc1)=N[C@@H](Cc1ncco1)c1nnc(C)n1-2 [Compound I-403] | – | – | < 500 | > 3000 | – | – | < 500 | > 3000
3 | Cc1sc2c(c1C)C(c1ccc(N3CCC4(CC3)CCN(c3ncc(C(=O)N[C@H]5C(C)(C)[C@H](Oc6ccc(C#N)c(Cl)c6)C5(C)C)cn3)C4)cc1)=NC(Cc1ncco1)c1nnc(C)n1-2 (stereo partly shown) [Compound I-643] | < 500 | < 500 | – | – | < 500 | < 500 | – | –
4 | Cc1sc2c(c1C)C(c1ccc(OCC[C@H]3CCCN(c4ncc(C(=O)N[C@H]5C(C)(C)[C@H](Oc6ccc(C#N)c(Cl)c6)C5(C)C)cn4)C3)cc1)=N[C@@H](Cc1ncco1)c1nnc(C)n1-2 [Compound I-301] | < 500 | < 500 | – | – | < 500 | 500 to 1500 | – | –
5 | Cc1sc2c(c1C)C(c1ccc(N3CC(C4CCN(c5ncc(C(=O)N[C@H]6C(C)(C)[C@H](Oc7ccc(C#N)c(Cl)c7)C6(C)C)cn5)C4)C3)cc1)=NC1(CC1)c1nnc(C)n1-2 (stereo partly shown) [Compound I-605] | – | – | 500 to 1500 | < 500 | – | – | < 500 | < 500
6 | Cc1sc2c(c1C)C(c1ccc(OC[C@H]3CC[C@@]4(CCCN(c5ncc(C(=O)N[C@H]6C(C)(C)[C@H](Oc7ccc(C#N)c(Cl)c7)C6(C)C)cn5)C4)C3)cc1)=N[C@@H](Cc1ncco1)c1nnc(C)n1-2 [Compound I-203] | < 500 | < 500 | – | – | < 500 | > 3000 | – | –
7 | CCNC(=O)C[C@@H]1N=C(c2ccc(CCCOC3CCN(c4ncc(C(=O)N[C@H]5C(C)(C)[C@H](Oc6ccc(C#N)c(Cl)c6)C5(C)C)cn4)CC3)cc2)c2c(sc(C)c2C)-n2c(C)nnc21 [Compound I-87, N-[3-(3-chloro-4-cyano-phenoxy)-2,2,4,4-tetramethyl-cyclobutyl]-2-[4-[3-[4-[(9S)-9-[2-(ethylamino)-2-oxo-ethyl]-4,5,13-trimethyl-3-thia-1,8,11,12-tetrazatricyclo[8.3.0.02,6]trideca-2(6),4,7,10,12-pentaen-7-yl]phenyl]propoxy]-1-piperidyl]pyrimidine-5-carboxamide] | < 500 | < 500 | – | – | < 500 | < 500 | – | –
8 | Cc1sc2c(c1C)C(c1ccc(C[C@H]3CC[C@H]4CN(c5ncc(C(=O)N[C@H]6C(C)(C)[C@H](Oc7ccc(C#N)c(Cl)c7)C6(C)C)cn5)CCN4C3)cc1)=NC(Cc1ncco1)c1nnc(C)n1-2 (stereo partly shown) [Compound I-324] | < 500 | < 500 | – | – | > 3000 | < 500 | – | –
9 | Cc1sc2c(c1C)C(c1ccc(C[C@H]3C[C@]4(CN(c5ncc(C(=O)N[C@H]6C(C)(C)[C@H](Oc7ccc(C#N)c(Cl)c7)C6(C)C)cn5)CCO4)C3)cc1)=N[C@@H](Cc1ncco1)c1nnc(C)n1-2 [Compound I-245] | < 500 | < 500 | – | – | < 500 | < 500 | – | –
10 | Cc1sc2c(c1C)C(c1ccc([C@H]3C[C@H]([C@@H]4CCCN(c5ncc(C(=O)N[C@H]6C(C)(C)[C@H](Oc7ccc(C#N)c(Cl)c7)C6(C)C)cn5)C4)C3)cc1)=N[C@@H](Cc1ncco1)c1nnc(C)n1-2 [Compound I-422] | < 500 | < 500 | – | – | < 500 | > 3000 | – | –
11 | Cc1sc2c(c1C)C(c1ccc(-c3csc(OC4CCN(c5ncc(C(=O)N[C@H]6C(C)(C)[C@H](Oc7ccc(C#N)c(Cl)c7)C6(C)C)cn5)CC4)n3)cc1)=N[C@@H](Cc1ncco1)c1nnc(C)n1-2 [Compound I-408] | < 500 | 500 to 1500 | – | – | < 500 | > 3000 | – | –
12 | Cc1sc2c(c1C)C(c1ccc(NCC(=O)N3CCC(c4ncc(C(=O)N[C@H]5C(C)(C)[C@H](Oc6ccc(C#N)c(Cl)c6)C5(C)C)cn4)CC3)cc1)=N[C@H](Cc1ncco1)c1nnc(C)n1-2 [Compound I-275] | < 500 | < 500 | – | – | < 500 | < 500 | – | –
13 | Cc1sc2c(c1C)C(c1ccc(OC3CC4(CCN(c5ncc(C(=O)N[C@H]6C(C)(C)[C@H](Oc7ccc(C#N)c(Cl)c7)C6(C)C)cn5)CC4)C3)cc1)=NC(C(F)(F)F)c1nnc(C)n1-2 (stereo partly shown) [Compound I-601] | – | – | > 3000 | < 500 | – | – | > 3000 | > 3000
14 | Cc1sc2c(c1C)C(c1ccc(N3CCC(CC4CCN(c5ncc(C(=O)N[C@H]6C(C)(C)[C@H](Oc7ccc(C#N)c(Cl)c7)C6(C)C)cn5)CC4)CC3)cc1)=N[C@H](Cc1ncco1)c1nnc(C)n1-2 [Compound I-211] | < 500 | < 500 | – | – | < 500 | 500 to 1500 | – | –
15 | CCNC(=O)C[C@@H]1N=C(c2ccc(N3CC(CC4CN(c5ncc(C(=O)N[C@H]6C(C)(C)[C@H](Oc7ccc(C#N)c(Cl)c7)C6(C)C)cn5)C4)C3)cc2)c2c(sc(C)c2C)-n2c(C)nnc21 [Compound I-127] | < 500 | < 500 | – | – | < 500 | 500 to 1500 | – | –

Now from value to molecule, other results behind:

Row | GI50 (T47D cells; Homo sapiens, T47D, 72 h) [nM] | GI50 (VCaP cells; Homo sapiens, VCaP, 72 h) [nM] | GI50 (T47D cells) [nM] | GI50 (VCaP cells) [nM] | Structure (SMILES) | GI50 ([1]; 72 h) [nM] | GI50 ([2]; 72 h) [nM] | GI50 ([1]; 72 hours) [nM] | GI50 ([2]; 72 hours) [nM]
16 | < 500 | > 3000 | – | – | Cc1sc2c(c1C)C(c1ccc(CC3CC4(CCN(c5cnc(C(=O)N[C@H]6C(C)(C)[C@H](Oc7ccc(C#N)c(Cl)c7)C6(C)C)cn5)CC4)C3)cc1)=N[C@@H](Cc1ncco1)c1nnc(C)n1-2 [Compound I-547] | < 500 | < 500 | – | –
17 | > 3000 | > 3000 | – | – | Cc1sc2c(c1C)C(c1ccc(N(C)CC(=O)NCc3ncc(C(=O)N[C@H]4C(C)(C)[C@H](Oc5ccc(C#N)c(Cl)c5)C4(C)C)cn3)cc1)=N[C@@H](Cc1ncco1)c1nnc(C)n1-2 [Compound I-373] | > 3000 | > 3000 | – | –
18 | 500 to 1500 | < 500 | – | – | Cc1sc2c(c1C)C(c1ccc(-c3noc(C4CCN(c5ncc(C(=O)N[C@H]6C(C)(C)[C@H](Oc7ccc(C#N)c(Cl)c7)C6(C)C)cn5)CC4)n3)cc1)=N[C@@H](Cc1ncco1)c1nnc(C)n1-2 [Compound I-454] | < 500 | < 500 | – | –
19 | < 500 | > 3000 | – | – | Cc1sc2c(c1C)C(c1ccc(N3CC(CC4CCN(c5cnc(C(=O)N[C@H]6C(C)(C)[C@H](Oc7ccc(C#N)c(Cl)c7)C6(C)C)cn5)CC4)C3)cc1)=N[C@@H](C)c1nnc(C)n1-2 [Compound I-450] | 500 to 1500 | > 3000 | – | –
20 | > 3000 | > 3000 | – | – | Cc1noc2c1-c1ccccc1C(c1ccc(OC3CC4(C3)CN(c3ncc(C(=O)N[C@H]5C(C)(C)[C@H](Oc6ccc(C#N)c(Cl)c6)C5(C)C)cn3)CCO4)cc1)=N[C@H]2Cc1ncco1 [Compound I-221, N-[3-(3-chloro-4-cyano-phenoxy)-2,2,4,4-tetramethyl-cyclobutyl]-2-[2-[4-[(4S)-1-methyl-4-(oxazol-2-ylmethyl)-4H-isoxazolo[5,4-d][2]benzazepin-6-yl]phenoxy]-5-oxa-8-azaspiro[3.5]nonan-8-yl]pyrimidine-5-carboxamide] | < 500 | > 3000 | – | –
21 | > 3000 | > 3000 | – | – | Cc1sc2c(c1C)C(c1ccc(O[C@H]3C[C@]4(CCCN(c5ncc(C(=O)N[C@H]6C(C)(C)[C@H](Oc7ccc(C#N)c(Cl)c7)C6(C)C)cn5)C4)C3)cc1)=N[C@@H](C)c1nnc(C)n1-2 [Compound I-410] | < 500 | > 3000 | – | –
22 | 500 to 1500 | > 3000 | – | – | Cc1sc2c(c1C)C(c1ccc([C@@H]3CCN(C(=O)[C@H]4CCCN(c5ncc(C(=O)N[C@H]6C(C)(C)[C@H](Oc7ccc(C#N)c(Cl)c7)C6(C)C)cn5)C4)C3)cc1)=N[C@@H](Cc1ncco1)c1nnc(C)n1-2 [Compound I-386] | > 3000 | > 3000 | – | –
23 | 500 to 1500 | 500 to 1500 | – | – | Cc1sc2c(c1C)C(c1ccc(N3CC4(CCN(c5ncc(C(=O)N[C@H]6C(C)(C)[C@H](Oc7ccc(C#N)c(Cl)c7)C6(C)C)cn5)CC4)C3)cc1)=NC(Cc1ncco1)c1nnc(C)n1-2 (stereo partly shown) [Compound I-207] | – | – | < 500 | > 3000
24 | < 500 | < 500 | – | – | Cc1sc2c(c1C)C(c1ccc(CC[C@H]3CCCC(c4ncc(C(=O)N[C@H]5C(C)(C)[C@H](Oc6ccc(C#N)c(Cl)c6)C5(C)C)cn4)C3)cc1)=N[C@@H](Cc1ncco1)c1nnc(C)n1-2 (stereo partly shown) [Compound I-298] | < 500 | < 500 | – | –
25 | 500 to 1500 | 1500 to 3000 | – | – | Cc1sc2c(c1C)C(c1ccc(C(=O)N3CCC(N(C)c4ncc(C(=O)N[C@H]5C(C)(C)[C@H](Oc6ccc(C#N)c(Cl)c6)C5(C)C)cn4)CC3)cc1)=N[C@H](Cc1ncco1)c1nnc(C)n1-2 [Compound I-294] | < 500 | > 3000 | – | –
